Measurements from US20030073618A1, “Compounds comprising disulfide-containing peptides and nitrogenous bases, and medical uses thereof” (priority 2001, published 2003).
Read-outs that look alike come from different tables or passages of the source.

Tested on: mycobacterium tuberculosis
Details: for CD4+ / CD4/CD8 / CD8+ / IL-1 / IL-4 / IL-6 / IL-8 / IL-12 / Lymphocytes: blood immune test; for ESR / Erythrocytes / Hemoglobin / Leukocytes / Monocytes / Platelets / Segmented neutrophils / Stab neutrophils: general blood test
Throughout, for IL-12: unit not given here.
Throughout, for IL-4: unit not given here.
Throughout, for IL-6: unit not given here.
Throughout, for IL-8: unit not given here.

Compound: N[C@@H](CCC(=O)N[C@@H](CSSC[C@H](NC(=O)CC[C@H](NP(=O)(O)OC[C@H]1O[C@@H](n2cnc3c(=O)[nH]cnc32)[C@H](O)[C@@H]1O)C(=O)O)C(=O)NCC(=O)[O-])C(=O)NCC(=O)[O-])C(=O)O.[Li+].[Li+] [Example 16]
- CD4+ (19.12.98): 860
- CD4/CD8 (19.12.98): 1.53
- CD8+ (19.12.98): 563
- IL-1 (19.12.98): 46
- IL-4 (19.12.98): 37
- IL-6 (19.12.98): 44
- IL-8 (19.12.98): 50
- IL-12 (19.12.98): 39
- Lymphocytes (19.12.98): 1400
- CD4+ (20.10.98): 199
- CD4/CD8 (20.10.98): 0.56
- CD8+ (20.10.98): 357
- IL-1 (20.10.98): 22
- IL-4 (20.10.98): 32
- IL-6 (20.10.98): 16
- IL-8 (20.10.98): 23
- IL-12 (20.10.98): 14
- Lymphocytes (20.10.98): 832
- CD4+ (21.01.99): 892
- CD4/CD8 (21.01.99): 1.50
- CD8+ (21.01.99): 594
- IL-1 (21.01.99): 39
- IL-4 (21.01.99): 34
- IL-6 (21.01.99): 39
- IL-8 (21.01.99): 48
- IL-12 (21.01.99): 47
- Lymphocytes (21.01.99): 1680
- CD4+ (21.11.98): 527
- CD4/CD8 (21.11.98): 1.25
- CD8+ (21.11.98): 422
- IL-1 (21.11.98): 29
- IL-4 (21.11.98): 30
- IL-6 (21.11.98): 29
- IL-8 (21.11.98): 45
- IL-12 (21.11.98): 28
- Lymphocytes (21.11.98): 1350
- ESR (19.12.98): 13
- Erythrocytes (19.12.98): 4.3
- Hemoglobin (19.12.98): 132
- Leukocytes (19.12.98): 5.2
- Monocytes (19.12.98): 2
- Platelets (19.12.98): 230
- Segmented neutrophils (19.12.98): 51
- Stab neutrophils (19.12.98): 1
- ESR (20.10.98): 50
- Erythrocytes (20.10.98): 3.7
- Hemoglobin (20.10.98): 108
- Leukocytes (20.10.98): 9.9
- Monocytes (20.10.98): 12
- Platelets (20.10.98): 260
- Segmented neutrophils (20.10.98): 57
- Stab neutrophils (20.10.98): 12
- ESR (21.01.99): 11
- Erythrocytes (21.01.99): 4.2
- Hemoglobin (21.01.99): 128
- Leukocytes (21.01.99): 6.8
- Monocytes (21.01.99): 5
- Platelets (21.01.99): 210
- Segmented neutrophils (21.01.99): 50
- Stab neutrophils (21.01.99): 3
- ESR (21.11.98): 27
- Erythrocytes (21.11.98): 4.2
- Hemoglobin (21.11.98): 128
- Leukocytes (21.11.98): 5.2
- Monocytes (21.11.98): 4
- Platelets (21.11.98): 210
- Segmented neutrophils (21.11.98): 53
- Stab neutrophils (21.11.98): 6
